Results: patent US11338004B2, “Composition for preventing or treating cranial nerve disease comprising fomes fomentarius extract, fraction thereof, or compound isolated therefrom as active ingredient” (priority 2015, dated 2022)

Tests used:
AChE = AChE (Homo sapiens, UniProt P22303); assay: Acetylcholinesterase inhibitory activity; type: biochemical; conditions: read-out: acetylcholinesterase inhibitory activity (%)
Experimental: AChE and acetylthocholine iodine (ATC) were dissolved in 100 mM phosphate buffer (pH 8.0) to prepare 0.25 U/mL and 75 mM, respectively. […] 2.8 mL of phosphate buffer (100 mM, pH 8.0), 30 μL of AChE (0.25 U/mL), and 100 μL of DTNB were added to 30 μL of the extract, and were mixed. Then, the mixture was preincubated at 37° C. for 10 minutes. Then, 30 μL of substrate ATC was added thereto and was reacted at 37° C. for 3 minutes, and then the absorbance was measured at 412 nm. As a control group, 30 μL of 100 mM phosphate buffer (pH 8.0) was added instead of the extract, and then was measured.

TNF-α = TNF-α in LPS-treated BV2 cells; type: cell-based, mouse; design: unit not given here
Experimental: (§1) A mouse BV2 cell line was stored and maintained in a humidified incubator at 37° C. under a 5% CO2 condition using a DMEM culture medium supplemented with 10% FBS, 100 U/ml of penicillin and 100 μg/ml of streptomycin, was trypsinized, and was subcultured.
BV2 cells were placed in a 6-well plate at 7.5×10^5 cells/well, and stabilized at 37° C. and 5.0% CO2 for 12 hours. After that, LPS and the Fomes fomentarius CHCl3 fractions, the nonadecanone (2-Nonadecanone) or the docosenol (cis-13-Docosenol) compounds were placed according to groups and were incubated for 1 hour. The cell culture was collected and used for cytokine analysis. All the cell culture was removed, and then 1 ml of dPBS was dispensed to each well to wash and remove the wells. 200 μl of the lysis buffer was dispensed per well and the cells attached to the bottom of the well were removed with a cell scriper, and then were slowly mixed and reacted for […] on ice at 4° C. The cells were removed with a scriper again and all the lysis solution was collected. The collected lysis solution was centrifuged at 15,000 rpm for 15 minutes at 4° C. so that only the supernatant was collected. In order to plot standard curves for protein quantification, a standard BSA solution ([…]) and a dilution were prepared in which bradford solution and D.W. were diluted with 4:1. After the bradford dilution was dispensed in each 200 μl to 96-well, the standard BSA solution and the cell lysis supernatant were dispersed in a volume of 10 μl per well, and then they were mixed by pipetting. After 10 minutes, the protein was quantitated by measuring the absorbance at 595 nm in a reader. The subsequent procedures were carried out in the same manner as in the quantitative analysis of the protein of Example 3-3.

[1] = test system: NO production in mouse BV2 cell line; assay: NO (nitrite) production in LPS-treated BV2 cells, Griess reagent; type: cell-based
Experimental: as §1
In the present disclosure, the amount of nitrite produced was measured to determine the anti-inflammatory activity of the Fomes fomentarius fraction. Nitrite is a major stable product of nitric oxide (NO), one of the inflammatory mediators, and was measured by using Griess reagent.
First, the cells were cultured at 5×10^5 cells/ml in a 6-well plate. They were treated with Fomes fomentarius extracts having various concentrations (5, 20, 50, and 100 μg/ml) and then reacted for 24 hours in the presence or absence of LPS ([…]). DMEM medium for BV2 cells and the fresh medium containing LPS (1 μg/ml) and the sample were treated at the same time and cultured for 24 hours. The amount of NO produced was determined using Griess reagent in which 100 μl of cell culture supernatant and 100 μl of Griess reagent [1% (w/v) sulfanilamide, 0.1% (w/v) naphthyl ethylenediamine in 2.5% (v/v) phosphoric acid] were mixed and reacted on a 96-well plate for 10 minutes, and then an ELISA reader was used to measure absorbance at 540 nm. Standard concentration curves were obtained by stepwise dilution of sodium nitrite (NaNO2).

AChE, sequence (P22303 32-614): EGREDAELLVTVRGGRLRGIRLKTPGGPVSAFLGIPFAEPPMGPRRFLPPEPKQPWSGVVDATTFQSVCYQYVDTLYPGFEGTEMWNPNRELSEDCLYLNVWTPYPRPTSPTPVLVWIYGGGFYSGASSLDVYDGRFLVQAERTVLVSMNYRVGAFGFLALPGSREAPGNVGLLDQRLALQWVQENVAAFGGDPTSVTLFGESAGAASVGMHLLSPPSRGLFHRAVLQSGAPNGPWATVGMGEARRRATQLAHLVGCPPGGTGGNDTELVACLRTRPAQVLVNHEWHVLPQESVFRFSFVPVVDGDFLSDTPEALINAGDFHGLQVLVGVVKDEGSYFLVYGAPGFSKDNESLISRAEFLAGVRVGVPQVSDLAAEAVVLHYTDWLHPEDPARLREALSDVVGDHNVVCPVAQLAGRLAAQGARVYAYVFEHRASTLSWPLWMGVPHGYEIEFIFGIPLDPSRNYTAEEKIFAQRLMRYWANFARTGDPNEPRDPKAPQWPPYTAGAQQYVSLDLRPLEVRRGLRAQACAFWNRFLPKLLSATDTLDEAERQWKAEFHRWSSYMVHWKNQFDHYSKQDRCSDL

Row | Structure (SMILES) | inhibition at 10 µg/mL (AChE) | inhibition at 20 µg/mL (AChE) | inhibition at 40 µg/mL (AChE) | inhibition at 80 µg/mL (AChE) | inhibition at 160 µg/mL (AChE) | inhibition at 320 µg/mL (AChE) | inhibition at 640 µg/mL (AChE) | TNF-α level (TNF-α; 5 μg/ml) | TNF-α level (TNF-α; 20 μg/ml) | TNF-α level (TNF-α; 50 μg/ml) | TNF-α level (TNF-α; 100 μg/ml) | NO production (nitrite) ([1]; 5 μg/ml) | NO production (nitrite) ([1]; 20 μg/ml) | NO production (nitrite) ([1]; 50 μg/ml) | NO production (nitrite) ([1]; 100 μg/ml)
1 | CCCCCCCC/C=C\CCCCCCCCCCCCO [docosenol, cis-13-Docosenol] | 18.1 ± 2.6% | 23.1 ± 3.8% | 28.4 ± 1.9% | 35.9 ± 5.1% | 40.9 ± 6.8% | 55.1 ± 4.9% | 59.6 ± 6.6% | 60.12±7.4 | 40.58±6.2 | 28.15±4.1 | 22.87±5.6 | 8.04±0.55 | 5.56±0.61 | 4.42±0.48 | 2.76±40.59
2 | CCCCCCCCCCCCCCCCCC(C)=O [nonadecanone, 2-Nonadecanone] | 11.6 ± 1.1% | 18.9 ± 0.9% | 23.4 ± 2.8% | 30.1 ± 1.8% | 35.1 ± 3.1% | 41.5 ± 2.2% | 41.9 ± 3.8% | 79.12±4.1 | 70.24±5.0 | 59.56±6.2 | 50.47±3.1 | 2.98±0.78 | 2.35±0.68 | 1.99±0.39 | 1.62±0.41
